# Experimental data published in publication PMC4980604 (Scientific Reports, 2016).
# Target: T1, P-glycoprotein (P-gp) (Homo sapiens, UniProt P08183)
# T1 construct: gene ABCB1; P-gp membranes (Pgp-Glo assay system)
# Assay: Pgp-Glo ATPase stimulation at […] (membranes)
# Format: biochemical
# T1 sequence (P08183 whole entry): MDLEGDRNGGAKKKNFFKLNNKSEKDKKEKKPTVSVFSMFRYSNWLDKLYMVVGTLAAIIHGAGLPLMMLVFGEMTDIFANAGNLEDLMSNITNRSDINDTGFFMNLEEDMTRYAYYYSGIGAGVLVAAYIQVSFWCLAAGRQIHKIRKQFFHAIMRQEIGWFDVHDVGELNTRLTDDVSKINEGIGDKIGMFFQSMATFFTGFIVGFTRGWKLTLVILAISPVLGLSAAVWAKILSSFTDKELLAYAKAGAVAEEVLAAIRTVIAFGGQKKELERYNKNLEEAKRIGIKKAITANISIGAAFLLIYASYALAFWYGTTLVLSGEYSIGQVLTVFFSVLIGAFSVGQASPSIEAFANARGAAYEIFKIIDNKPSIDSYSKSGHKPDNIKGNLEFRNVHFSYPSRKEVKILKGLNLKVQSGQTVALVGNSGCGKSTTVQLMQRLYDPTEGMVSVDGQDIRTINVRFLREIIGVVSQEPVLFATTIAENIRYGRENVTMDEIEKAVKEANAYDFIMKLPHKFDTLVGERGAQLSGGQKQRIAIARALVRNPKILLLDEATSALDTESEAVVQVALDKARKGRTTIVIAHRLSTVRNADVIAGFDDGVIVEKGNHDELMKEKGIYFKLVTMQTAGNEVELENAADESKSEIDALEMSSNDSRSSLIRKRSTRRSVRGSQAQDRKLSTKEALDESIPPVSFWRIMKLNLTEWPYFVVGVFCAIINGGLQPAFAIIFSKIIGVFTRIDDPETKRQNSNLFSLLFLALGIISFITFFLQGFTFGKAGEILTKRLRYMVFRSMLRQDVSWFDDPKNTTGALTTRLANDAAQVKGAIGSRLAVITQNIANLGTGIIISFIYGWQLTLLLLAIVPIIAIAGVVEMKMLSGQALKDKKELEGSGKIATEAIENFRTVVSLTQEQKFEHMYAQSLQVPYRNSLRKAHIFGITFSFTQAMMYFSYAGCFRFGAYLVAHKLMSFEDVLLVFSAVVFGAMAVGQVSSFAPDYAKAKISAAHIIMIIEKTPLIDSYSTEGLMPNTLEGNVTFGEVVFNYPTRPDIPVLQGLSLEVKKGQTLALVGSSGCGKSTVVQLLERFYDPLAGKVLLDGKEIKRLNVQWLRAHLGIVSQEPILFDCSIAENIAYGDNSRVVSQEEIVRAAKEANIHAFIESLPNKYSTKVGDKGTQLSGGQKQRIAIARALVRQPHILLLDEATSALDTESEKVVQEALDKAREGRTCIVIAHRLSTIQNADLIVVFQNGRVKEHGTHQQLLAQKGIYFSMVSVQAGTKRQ
smiles,measurement,value
CC[C@]1(O)C[C@H]2CN(CCc3c([nH]c4ccccc34)[C@@](C(=O)OC)(c3cc4c(cc3OC)N(C=O)[C@H]3[C@@](O)(C(=O)OC)[C@H](OC(C)=O)[C@]5(CC)C=CCN6CC[C@]43[C@@H]65)C2)C1 [vincristine],Pgp-Glo ATPase stimulation at 2 μM (membranes),verapamil and vincristine induced an obvious increase in activity of P-gp ATPase
